Assay results from ChEMBL document CHEMBL1201862, “PubChem BioAssay data set” (2004).
The source made the active and inactive calls.

How the values were obtained:
HeLa = experiment: Cytotoxicity counterscreen assay for transcriptional activators of heat shock protein 70 (Hsp70). [Related pubchem assays: 1203, 1252 ]; type: functional; conditions: Homo sapiens
[1] = target: T1, Carboxy-terminal domain RNA polymerase II polypeptide A small phosphatase 1 (Homo sapiens, UniProt Q9GZU7); experiment: inhibitors of CTDSP1, concentration-response testing, biochemical assay, absorbance-based, actives from ultra-high-throughput screening (AID 540297); type: functional
T1 sequence (Q9GZU7 whole entry): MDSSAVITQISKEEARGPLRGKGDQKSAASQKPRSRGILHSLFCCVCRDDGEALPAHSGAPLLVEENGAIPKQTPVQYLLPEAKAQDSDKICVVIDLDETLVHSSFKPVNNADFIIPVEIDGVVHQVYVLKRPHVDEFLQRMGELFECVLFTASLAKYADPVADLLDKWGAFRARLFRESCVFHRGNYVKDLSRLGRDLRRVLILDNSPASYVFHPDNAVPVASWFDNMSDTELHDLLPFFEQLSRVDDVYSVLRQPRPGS

Estrogen receptor [2] = target: T2, Estrogen receptor (Homo sapiens, UniProt P03372);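 further: potency for inhibiting coactivator peptide recruitment to the receptor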
T2 sequence (P03372 whole entry): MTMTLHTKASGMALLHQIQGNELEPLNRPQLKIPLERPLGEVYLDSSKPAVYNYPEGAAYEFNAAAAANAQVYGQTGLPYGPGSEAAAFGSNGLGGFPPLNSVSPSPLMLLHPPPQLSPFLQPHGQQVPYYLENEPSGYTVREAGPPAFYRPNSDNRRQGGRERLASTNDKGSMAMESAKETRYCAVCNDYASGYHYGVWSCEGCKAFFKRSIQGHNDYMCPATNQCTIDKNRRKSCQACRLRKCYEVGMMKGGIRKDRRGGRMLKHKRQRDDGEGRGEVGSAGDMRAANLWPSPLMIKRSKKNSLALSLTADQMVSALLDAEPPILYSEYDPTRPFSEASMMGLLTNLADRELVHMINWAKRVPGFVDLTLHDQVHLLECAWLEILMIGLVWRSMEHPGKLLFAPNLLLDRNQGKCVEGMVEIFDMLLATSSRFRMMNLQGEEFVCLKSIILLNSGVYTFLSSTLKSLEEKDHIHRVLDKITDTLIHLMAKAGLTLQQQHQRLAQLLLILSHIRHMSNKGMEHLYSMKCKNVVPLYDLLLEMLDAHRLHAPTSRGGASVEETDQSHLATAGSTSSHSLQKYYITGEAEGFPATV

[3] = target: T3, Eukaryotic translation initiation factor 2-alpha kinase 3 (Homo sapiens, UniProt Q9NZJ5); experiment: Counterscreen assay for PERK inhibitors: Dose response cell-based high throughput screening assay to measure inhibition of PERK at 6 hours. [Related pubchem assays: 1522, 1416 ]; type: functional
T3 sequence (Q9NZJ5 whole entry): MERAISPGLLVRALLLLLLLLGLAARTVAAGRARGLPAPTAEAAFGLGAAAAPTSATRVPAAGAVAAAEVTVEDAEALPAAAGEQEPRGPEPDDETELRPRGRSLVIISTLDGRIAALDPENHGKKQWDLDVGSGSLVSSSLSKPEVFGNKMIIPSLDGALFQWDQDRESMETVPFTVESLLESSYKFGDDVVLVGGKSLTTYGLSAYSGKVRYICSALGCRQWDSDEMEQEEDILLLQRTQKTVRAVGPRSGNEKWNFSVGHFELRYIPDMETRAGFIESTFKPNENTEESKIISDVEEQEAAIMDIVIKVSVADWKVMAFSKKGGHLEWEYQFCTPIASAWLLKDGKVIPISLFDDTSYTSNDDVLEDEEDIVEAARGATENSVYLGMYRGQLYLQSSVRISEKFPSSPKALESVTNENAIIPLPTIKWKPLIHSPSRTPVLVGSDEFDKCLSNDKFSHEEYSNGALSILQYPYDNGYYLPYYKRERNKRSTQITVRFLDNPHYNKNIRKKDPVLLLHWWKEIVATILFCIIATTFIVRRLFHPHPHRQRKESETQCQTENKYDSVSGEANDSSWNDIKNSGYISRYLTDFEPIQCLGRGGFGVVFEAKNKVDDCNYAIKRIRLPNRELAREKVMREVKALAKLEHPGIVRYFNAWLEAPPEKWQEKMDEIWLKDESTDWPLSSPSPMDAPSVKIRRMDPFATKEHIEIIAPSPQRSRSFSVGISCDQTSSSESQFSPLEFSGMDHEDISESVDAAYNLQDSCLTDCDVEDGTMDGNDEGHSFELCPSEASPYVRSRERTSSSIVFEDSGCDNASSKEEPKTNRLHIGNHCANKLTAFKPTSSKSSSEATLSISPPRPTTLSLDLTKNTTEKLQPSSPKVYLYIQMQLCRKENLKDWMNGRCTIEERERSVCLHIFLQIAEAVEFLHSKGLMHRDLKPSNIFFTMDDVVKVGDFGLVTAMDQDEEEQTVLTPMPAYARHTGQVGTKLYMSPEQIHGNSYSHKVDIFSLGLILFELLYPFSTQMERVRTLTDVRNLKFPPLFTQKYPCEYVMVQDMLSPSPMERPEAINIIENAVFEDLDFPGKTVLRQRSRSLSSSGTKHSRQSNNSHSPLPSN

[4] = target: T3, Eukaryotic translation initiation factor 2-alpha kinase 3; experiment: Dose response cell-based high-throughput screening assay to measure PERK inhibition. [Related pubchem assays: 1416 ]; type: functional
Estrogen receptor [5] = target: T2, Estrogen receptor; experiment: potentiators of ERα–SRC-1 coactivator binding, dose response, biochemical, TR-FRET, ERα LBD (AID 737)
Melanocortin receptor 4 = Melanocortin receptor 4 (Homo sapiens, UniProt P32245); type: functional, cell-based;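 further: Cell-based assay with luminescence read-out, confirmatory dose-response testing for agonist activity of biased ligands at MC4R; human U2OS cells with tagged receptor and beta-arrestin; potency of agonists that increase receptor coupling to beta-arrestin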
Chain of Melanocortin receptor 4 (P32245 whole entry): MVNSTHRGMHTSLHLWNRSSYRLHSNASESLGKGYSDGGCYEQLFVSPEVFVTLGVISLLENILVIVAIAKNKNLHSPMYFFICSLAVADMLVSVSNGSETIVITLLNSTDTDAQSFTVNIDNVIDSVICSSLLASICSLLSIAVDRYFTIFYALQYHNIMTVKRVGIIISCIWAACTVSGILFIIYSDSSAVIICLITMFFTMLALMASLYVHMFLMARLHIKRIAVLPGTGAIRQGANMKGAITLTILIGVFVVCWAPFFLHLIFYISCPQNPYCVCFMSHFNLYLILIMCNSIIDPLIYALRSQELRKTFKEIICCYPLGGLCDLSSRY

cells = type: functional, cell-based
[6] = luciferase reporter signal reduction – luminescence, H4-C neuroglioblastoma cells, dose response (AID 2458); type: functional, cell-based;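 further: H4 neuroglioblastoma cells stably carrying a luciferase reporter gene fusion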
Paired box protein Pax-8 = Paired box protein Pax-8 (Homo sapiens, UniProt Q06710); experiment: inhibitors of PAX8-driven TPO luciferase reporter, dose response, RMG-I cells, cherry-pick (AID 687027); type: functional, cell-based;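 further: luciferase reporter driven by Pax8 target thyroperoxidase promoter measured by SteadyGlo luminescence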
Chain of Paired box protein Pax-8 (Q06710 whole entry): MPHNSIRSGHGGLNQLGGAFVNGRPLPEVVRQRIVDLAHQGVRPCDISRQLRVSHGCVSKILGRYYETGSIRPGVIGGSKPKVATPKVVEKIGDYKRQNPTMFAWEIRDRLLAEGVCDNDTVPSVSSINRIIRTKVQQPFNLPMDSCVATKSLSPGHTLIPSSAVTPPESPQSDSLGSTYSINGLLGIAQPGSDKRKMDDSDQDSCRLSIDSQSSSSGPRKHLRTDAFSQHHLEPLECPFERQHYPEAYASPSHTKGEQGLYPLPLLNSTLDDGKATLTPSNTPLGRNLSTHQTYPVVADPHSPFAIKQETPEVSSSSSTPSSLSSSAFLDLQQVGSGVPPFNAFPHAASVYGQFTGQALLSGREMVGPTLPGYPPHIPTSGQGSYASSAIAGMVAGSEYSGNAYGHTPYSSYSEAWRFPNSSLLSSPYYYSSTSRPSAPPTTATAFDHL

[7] = cytotoxicity dependent on PAX8, dose response, cell-based, plate reader, dry powder (AID 743049); type: functional
[8] = ZM109 Env clade C HIV-1 fusion inhibitors, dose response, HeLa effector, CEM target cells, luciferase, cherry-pick (AID 652058); type: functional, cell-based
[9] = inhibitors of SNCA 5'UTR-driven translation, confirmation, luminescence, H4 neuroglioblastoma cells, dose confirmation (AID 2454); type: functional, cell-based;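 further: H4 neuroglioblastoma cells carrying an alpha-synuclein 5'UTR luciferase reporter; potency for inhibition of the luciferase signal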
[10] = inhibitors of clade B AD8 Env fusion, dose response, cell-based, cherry-pick (AID 652062); type: functional;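 further: luciferase signal from cell-cell fusion driven by HIV-1 clade B AD8 Env; potency is for inhibitors of fusion seen as a drop in luminescence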
[11] = LGR2 antagonists, dose response, cell-based, HEK293, CRE-luciferase reporter, cherry pick, set 2 (AID 743343); type: functional;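 further: transfected cells were stimulated with diluted bursicon conditioned medium after compound addition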
[12] = MC4R antagonists, dose response, counter-screen for LGR2 antagonist project, cell-based, plate reader, cherry pick (AID 743444); type: functional;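 further: transfected HEK 293 cells stimulated with alpha-MSH peptide; potency of inhibitors of the alpha-MSH evoked signal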
[13] = PAX5 activity inhibitors, dose response, selectivity assay for PAX8 inhibitor project, cell-based, plate reader, dry powder samples (AID 743047); type: functional;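 further: HEK293 cells carrying a Pax5 driven CD19 promoter luciferase reporter; potency of inhibitors that lower reporter luminescence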
[14] = cytotoxicity in COV362 ovarian cancer cells, dose response, cytotoxicity control for PAX8 inhibitor project, cell-based, plate reader, dry powder, SA12 (AID 743144); type: functional
[15] = PAX2 cell-based inhibition, dose response, selectivity assay for PAX8 inhibitor project, plate reader, dry powder samples (AID 743048); type: functional;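 further: HEK293 cells carrying a WT1 promoter luciferase reporter driven by expressed Pax2; potency is for inhibition of Pax2 driven reporter signal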
[16] = inhibitors of SNCA 5'UTR-driven reporter translation, confirmation, H4 neuroglioma cells, luminescence (AID 1988); type: functional, cell-based
[17] = off-target signal loss in HeLa-CEM21 co-culture – HeLa F-luc CTL cells, cherry-picked, counter-screen for HIV-1 Env fusion inhibitor project, dose response (AID 652040); type: functional, cell-based;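 further: potency for signal decrease marking cytotoxic or nonspecific inhibition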
[18] = Luminescence-based counterscreen assay for KLF5 inhibitors: dose response cell-based high throughput screening assay to identify cytotoxic compounds using the IEC-6 intestinal epithelial cell line. [Related pubchem assays: 1700 (Primary screen.), 1834 (Confirmation screen.), 1858 (Summary AID.), 1905 (Counterscreen.)]; type: functional
[19] = target: T4, Microphthalmia-associated transcription factor (Homo sapiens, UniProt O75030); experiment: TRPM1 promoter luciferase signal decrease, dose response, MITF inhibitor project, cell-based, SK-MEL-5, cherry-picked, set 3 (AID 493073); type: functional
T4 sequence (O75030 whole entry): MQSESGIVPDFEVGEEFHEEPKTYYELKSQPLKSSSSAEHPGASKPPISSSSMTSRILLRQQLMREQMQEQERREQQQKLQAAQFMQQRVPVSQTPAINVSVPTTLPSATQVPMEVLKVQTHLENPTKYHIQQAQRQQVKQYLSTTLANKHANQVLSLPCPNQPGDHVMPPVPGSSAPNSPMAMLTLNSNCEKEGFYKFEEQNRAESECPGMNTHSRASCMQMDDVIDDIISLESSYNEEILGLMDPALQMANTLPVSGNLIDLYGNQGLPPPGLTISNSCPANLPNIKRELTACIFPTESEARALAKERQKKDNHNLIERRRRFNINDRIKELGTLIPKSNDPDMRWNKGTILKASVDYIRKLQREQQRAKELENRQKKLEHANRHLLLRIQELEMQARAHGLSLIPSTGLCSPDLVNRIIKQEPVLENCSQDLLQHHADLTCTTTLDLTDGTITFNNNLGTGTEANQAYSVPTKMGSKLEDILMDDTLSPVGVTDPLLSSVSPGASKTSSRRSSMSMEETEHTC

[20] = inhibitors of HIV Env-driven cell fusion, dose response, cherry-pick (AID 652057); type: functional, cell-based
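Wherever CC50 is given: cells exposed to compound for 16 hours before readout.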

SMILES: Cc1nn(C)c(C)c1NC(=O)c1ccc(S(=O)(=O)N(C)C)cc1
- CC50 (HeLa): > 99 µM (not active)

SMILES: CCCN(CCC)S(=O)(=O)c1ccc(NC(=O)Cc2cccs2)cc1
- IC50 [1]: 9.83 µM (active)
- IC50 (Estrogen receptor [2]): 16.7 µM (active)

SMILES: Oc1cnnc(N/N=C/c2cccs2)n1
- EC50 [3]: > 55.7 µM (not active)
- EC50 [4]: > 55.7 µM (not active)

SMILES: COc1cc(C(=O)Nc2nnc(-c3sccc3C)s2)cc(OC)c1OC
- EC50 (Estrogen receptor [5]): 13.2 µM (active)
- EC50 (Melanocortin receptor 4): > 89.2 µM (inactive)

SMILES: Cc1ccccc1OCC(=O)Nc1cccc(C(=O)O)c1
- EC50 (cells): 0.725 µM (active)
- EC50 [6]: 0.541 µM (active)
- AC50 (Paired box protein Pax-8): 2.3 µM (active)
- AC50 [7]: > 100 µM (inactive)
- AC50 [8]: 7.82 µM (active)
- EC50 [9]: 0.393 µM (active)
- AC50 [10]: 1.27 µM (active)
- AC50 [11]: 0.669 µM (active)
- AC50 [12]: 1.05 µM (active)
- AC50 [13]: 3.76 µM (active)
- AC50 [14]: > 100 µM (inactive)
- AC50 [15]: 3.61 µM (active)
- EC50 [16]: < 0.1 µM (active)
- AC50 [17]: 0.951 µM (active)
- IC50 [18]: > 39.8 µM (not active)
- AC50 [19]: 1.05 µM (active)
- AC50 [20]: 0.342 µM (active)
